# Measured values taken from PMC6456411 (Angewandte Chemie (International ed. in English), 2019).
# pIC50: −log10 of the molar value. Read-outs that look alike come from different tables or passages of the source.
# Assays:
# [1] = test system: Saos-2 cells in 3D culture; test: Cytotoxicity of chemotherapy drugs on 3D cell spheroids of Saos-2; assay type: cell-based
# [2] = test system: co-culture of HS-5 and Saos-2 cells, 2D cell sheets; test: Cytotoxicity of chemotherapy drugs on co-cultured 2D cell sheets; assay type: cell-based; settings: co-culture 2D cell sheets, 24 h; for cell toxicity: within the tested concentrations
# [3] = test system: co-culture of HS-5 and Saos-2 cells, 3D cell spheroids; test: Cytotoxicity of chemotherapy drugs on co-cultured 3D spheroids; assay type: cell-based; settings: co-culture 3D cell spheroids, 24 h; for cell toxicity: within the tested concentrations
# [4] = test system: Saos-2 cells; test: Cytotoxicity of chemotherapy drugs on 2D cell culture of Saos-2
# [5] = test system: co-culture of HS-5 and Saos-2 cells; test: Spheroid formation and live-dead assay in co-culture of HS-5 and Saos-2 cells; assay type: cell-based; settings: treated for 48 h; 1P:2 300 μM, ratio 1:1
# [6] = Homo sapiens, SAOS-2, 48 h, read-out: IC50 against Saos-2 cells
compound,measurement,setting,value
"COc1cccc2c1C(=O)c1c(O)c3c(c(O)c1C2=O)C[C@@](O)(C(=O)CO)C[C@@H]3O[C@H]1C[C@H](N)[C@H](O)[C@H](C)O1 [Dox, doxorubicin]",pIC50,[1]; [6],< 5.22
same,increase of IC50 in 3D culture than 2D culture,"[1]; Saos-2 cells, 48 h",more than 3 times
same,cell killing,[2]; 5 μM,kills about half of cells
same,cell toxicity,[2],dosage dependent cell toxicity
same,cell death,[3]; 5 μM,hardly causes cell death
same,cell toxicity,[3],little toxicity
same,pIC50,[4]; [6],5.85
N.N.[Cl][Pt][Cl] [cisplatin],pIC50,"[1]; read-out: IC50 against Saos-2 cells, 3D culture, 48 h",4.48
same,pIC50,"[1]; read-out: increase of IC50 in 3D culture, Saos-2 cells, 48 h, 3D versus 2D",4.92
same,cell killing,[2]; 50 nM,kills about half of cells
same,cell toxicity,[2],dosage dependent cell toxicity
same,cell death,[3]; 50 nM,hardly causes cell death
same,cell toxicity,[3],little toxicity
"CN[C@H](CC(C)C)C(=O)N[C@H]1C(=O)N[C@@H](CC(N)=O)C(=O)N[C@H]2C(=O)N[C@H]3C(=O)N[C@H](C(=O)N[C@H](C(=O)O)c4cc(O)cc(O)c4-c4cc3ccc4O)[C@H](O)c3ccc(c(Cl)c3)Oc3cc2cc(c3O[C@@H]2O[C@H](CO)[C@@H](O)[C@H](O)[C@H]2O[C@H]2C[C@](C)(N)[C@H](O)[C@H](C)O2)Oc2ccc(cc2Cl)[C@H]1O [compound 2, vancomycin]",morphology of co-cultured HS-5 and Saos-2 cells,[5],remain a 2D cell sheet
same,influence on cytotoxicity of chemotherapy drugs against Saos-2 cells,[4]; co-incubating with chemotherapy drugs,hardly influence their cytotoxicity
CC(=O)O[C@H]1C(=O)[C@@]2(C)[C@H]([C@H](OC(=O)c3ccccc3)[C@]3(O)C[C@H](OC(=O)[C@H](O)[C@@H](NC(=O)c4ccccc4)c4ccccc4)C(C)=C1C3(C)C)[C@]1(OC(C)=O)CO[C@@H]1C[C@@H]2O [taxol],cell viability,"[1]; Saos-2 3D spheroids, 40 nM, 48 h",94.25%
same,cell viability,"[4]; Saos-2 2D sheet, 40 nM, 48 h",60.84%
